Assay results published in BigSolDB 2.1.

Brc1sc(Br)c(Br)c1Br
solubility (mole fraction)
Conditions | in THF | in chloroform | in ethanol | in ethyl acetate | in ethyl formate | in methanol | in n-butanol | in n-propanol | in toluene
278.05 K | 0.0405 | 0.02 | – | 0.00809 | 0.00389 | – | 0.00267 | – | 0.027
281.25 K | 0.0436 | 0.0229 | 0.00149 | 0.00924 | 0.00451 | 0.000395 | 0.00295 | 0.00219 | 0.0314
286.15 K | 0.0469 | 0.0269 | 0.00165 | 0.0109 | 0.00546 | 0.000465 | 0.00369 | 0.00256 | 0.0358
290.15 K | 0.0511 | 0.0302 | 0.0018 | 0.0124 | 0.00632 | 0.000517 | 0.00433 | 0.00287 | 0.04
293.15 K | 0.0538 | 0.0334 | 0.002 | 0.0137 | 0.00705 | 0.000567 | 0.0048 | 0.00319 | 0.044
297.15 K | 0.0572 | 0.039 | 0.00221 | 0.0154 | 0.00809 | 0.000646 | 0.0054 | 0.00364 | 0.0486
302.15 K | 0.0625 | 0.0455 | 0.00267 | 0.0183 | 0.00969 | 0.00076 | 0.00636 | 0.00433 | 0.0554
307.15 K | 0.0685 | 0.0536 | 0.0031 | 0.0216 | 0.0118 | 0.000896 | 0.0077 | 0.00514 | 0.0626
311.65 K | 0.0738 | 0.0629 | 0.00356 | 0.0249 | 0.0138 | 0.00103 | 0.00895 | 0.00584 | 0.0713
315.65 K | 0.0788 | 0.0687 | 0.00404 | 0.0279 | 0.0154 | 0.0012 | 0.0102 | 0.0067 | 0.0756
320.15 K | 0.0843 | 0.0781 | 0.00475 | 0.0326 | 0.0174 | 0.00144 | 0.0118 | 0.00812 | 0.0834
325.15 K | – | – | 0.00566 | – | – | 0.00169 | – | 0.00965 | –
